Test results as given in patent US11339161B2, “Triazolo pyridines as modulators of gamma-secretase” (Boehringer Ingelheim International GmbH, priority 2017, dated 2022).
Where two headings read alike, the source gives them in different places.

Legend:
[1] = test system: kinases; assay: Z'-LYTE SelectScreen kinase panel: number of kinases with <40% inhibition out of 15 tested; format: biochemical; conditions: 10 μmolar (10000 nM) compound; [ATP] Km app; 15 kinases tested
[2] = biological target: LYN B (Homo sapiens, UniProt P07948); assay: Z'-LYTE SelectScreen biochemical kinase assay LYN B
Excerpt: Thermo Fisher Scientific SelectScreen™ Biochemical Kinase Profiling Service Z′-LYTE™ Screening Protocol and Assay Conditions Assay Theory
The […] biochemical assay employs a fluorescence-based, coupled-enzyme format and is based on the differential sensitivity of phosphorylated and non-phosphorylated peptides to proteolytic cleavage. The peptide substrate is labeled with two fluorophores—one at each end—that make up a FRET pair. In the primary reaction, the kinase transfers the gamma-phosphate of ATP to a single tyrosine, serine or threonine residue in a synthetic FRET-peptide. In the secondary reaction, a site-specific protease recognizes and cleaves non-phosphorylated FRET-peptides. Phosphorylation of FRET-peptides suppresses cleavage by the Development Reagent. Cleavage disrupts FRET between the donor (i.e., coumarin) and acceptor (i.e., fluorescein) fluorophores on the FRET-peptide, whereas uncleaved, phosphorylated FRET-peptides maintain FRET. A ratiometric method, which calculates the ratio (Emission Ratio=Coumarin emission (445 nm)/Fluorescein emission (520 nm)) of donor emission to acceptor emission after excitation of the donor fluorophore at 400 nm, is used to quantitate reaction progress, as shown in the equation below. A significant benefit of this ratiometric method for quantitating reaction progress is the elimination of well-to-well variations in FRET-peptide concentration and signal intensities. As a result, the assay yields very high Z′-factor values (>0.7) at a low percent phosphorylation. Both cleaved and uncleaved FRET-peptides contribute to the fluorescence signals and therefore to the Emission Ratio. The extent of phosphorylation of the FRET-peptide can be calculated from the Emission Ratio. The Emission Ratio will remain low if the FRET-peptide is phosphorylated (i.e., no kinase inhibition) and will be high if the FRET-peptide is non-phosphorylated (i.e., kinase inhibition).
The Test Compounds are screened in 1% DMSO (final) in the well. For 10 point titrations, 3-fold serial dilutions are conducted from the starting concentration of the customer's choosing.
All Peptide/Kinase Mixtures are diluted to a 2× working concentration in the appropriate Kinase Buffer (see section Kinase Specific Assay Conditions for a complete description).
All ATP Solutions are diluted to a 4× working concentration in Kinase Buffer (50 mM HEPES pH 7.5, 0.01% BRIJ-35, 10 mM MgCl2, 1 mM EGTA). ATP Km apparent is previously determined using a Z″-LYTE assay.
The Development Reagent is diluted in Development Buffer (see section Kinase-Specific Assay Conditions—Direct and Cascade for a complete description).
Bar-coded Corning, low volume NBS, black 384-well plate (Corning Cat. #4514) • 1. 100 nL—100× Test Compound in 100% DMSO • 2. 2.4 μL—Kinase buffer • 3. 5 μL—2× Peptide/Kinase Mixture • 4. 2.5 μL—4×ATP Solution • 5. 30—second plate shake • 6. 60—minute Kinase Reaction incubation at room temperature • 7. 5 μL—Development Reagent Solution • 8. 30—second plate shake • 9. 60—minute Development Reaction incubation at room temperature • 10. Read on fluorescence plate reader and analyze the data Z′-LYTE Assay Controls
SelectScreen Kinase Profiling Service uses XLfit from IDBS. The dose response curve is curve fit to model number 205 (sigmoidal dose-response model).
The 2×LYN B/Tyr 02 mixture is prepared in 50 mM HEPES pH 7.5, 0.01% BRIJ-35, 10 mM MgCl2, 1 mM EGTA. The final 10 μL Kinase Reaction consists of 0.85-14.8 ng LYN B and 2 μM Tyr 02 in 50 mM HEPES pH 7.5, 0.01% BRIJ-35, 10 mM MgCl2, 1 mM EGTA. After the 1 hour Kinase Reaction incubation, 5 μL of a 1:128 dilution of Development Reagent A is added.

[3] = test system: panel of 15 kinases; assay: Z'-LYTE SelectScreen kinase panel: number of kinases with <40% inhibition; format: biochemical; conditions: of 15 kinases tested; 10 μmolar compound; ATP at Km app
[4] = 10 μmolar compound concentration, ATP at Km app, read-out: LYN B inhibition
[5] = read-out: % Inhibition mean LYN B

Sequence of LYN B (P07948 1-491 isoform P07948-2): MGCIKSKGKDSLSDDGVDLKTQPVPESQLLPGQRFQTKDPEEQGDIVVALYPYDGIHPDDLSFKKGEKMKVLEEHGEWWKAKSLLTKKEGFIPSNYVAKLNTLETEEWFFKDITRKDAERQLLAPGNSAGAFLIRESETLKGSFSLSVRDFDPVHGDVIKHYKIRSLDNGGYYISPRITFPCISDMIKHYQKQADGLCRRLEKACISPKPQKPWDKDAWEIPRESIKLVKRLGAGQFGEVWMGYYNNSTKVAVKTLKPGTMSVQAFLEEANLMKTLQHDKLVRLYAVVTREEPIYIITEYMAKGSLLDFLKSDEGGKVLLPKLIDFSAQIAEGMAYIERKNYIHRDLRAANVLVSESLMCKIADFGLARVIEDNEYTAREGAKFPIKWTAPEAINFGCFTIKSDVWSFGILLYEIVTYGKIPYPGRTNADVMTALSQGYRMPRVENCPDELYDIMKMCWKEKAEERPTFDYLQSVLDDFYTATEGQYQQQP

Row | SMILES | No. of kinases with <40% inhibition [1] | inhibition at 10 µM [2, 4] [%] | inhibition at 10 µM [2, 5] [%] | No. of kinases with <40% inhibition [3]
1 | Cc1cc(F)ccc1-c1cccn2nc(NC3CCc4c(cnn4C(C)C)C3)nc12 (stereo not drawn) [Example 44, [8-(4-fluoro-2-methyl-phenyl)-[1,2,4]triazolo[1,5-a]pyridine-2-yl]-(1-isopropyl-4,5,6,7-tetrahydro-1H-indazol-5-yl)-amine] | 13/15 | < 40 | 21 | –
2 | CCn1nnc2c1CCC(Nc1nc3c(-c4ccc(F)cc4C)cccn3n1)C2 (stereo not drawn) [Example 51, (1-Ethyl-4,5,6,7-tetrahydro-1H-benzotriazol-5-yl)-[8-(4-fluoro-2-methyl-phenyl)-[1,2,4]triazolo[1,5-a]pyridine-2-yl]-amine] | 15/15 | < 40 | 7 | –
3 | CCn1ncc2c1CCC(Nc1nc3c(-c4cncc(Cl)c4)cccn3n1)C2 (stereo not drawn) [Example 73, [8-(5-Chloro-pyridin-3-yl)-[1,2,4]triazolo[1,5-a]pyridine-2-yl]-(1-ethyl-4,5,6,7-tetrahydro-1H-indazol-5-yl)-amine] | – | < 40 | 31 | 8/15
4 | CCn1ncc2c1CC[C@H](Nc1nc3c(-c4ccc(F)c(Cl)c4)cccn3n1)C2 [Example S-61, (S)-[8-(3-Chloro-4-fluoro-phenyl)-[1,2,4]triazolo[1,5-a]pyridine-2-yl]-(1-ethyl-4,5,6,7-tetrahydro-1H-indazol-5-yl)-amine] | – | < 40 | 8 | 15/15
5 | CCn1nc(Cl)c2c1CCC(Nc1nc3c(-c4ccc(F)cc4C)cccn3n1)C2 (stereo not drawn) [Example 48, (3-Chloro-1-ethyl-4,5,6,7-tetrahydro-1H-indazol-5-yl)-[8-(4-fluoro-2-methyl-phenyl)-[1,2,4]triazolo[1,5-a]pyridine-2-yl]-amine] | 14/15 | < 40 | 22 | –
6 | Cc1cc(F)ccc1-c1cccn2nc(NC3CCc4c(cnn4C)C3)nc12 (stereo not drawn) [Example 10, [8-(4-fluoro-2-methyl-phenyl)-[1,2,4]triazolo[1,5-a]pyridine-2-yl]-(1-methyl-4,5,6,7-tetrahydro-1H-indazol-5-yl)-amine] | 13/15 | < 40 | 17 | –
7 | CCCCn1ncc2c1CCC(Nc1nc3c(-c4ccc(F)cc4C)cccn3n1)C2 (stereo not drawn) [Example 46, [8-(4-fluoro-2-methyl-phenyl)-[1,2,4]triazolo[1,5-a]pyridine-2-yl]-(1-butyl-4,5,6,7-tetrahydro-1H-indazol-5-yl)-amine] | 14/15 | < 40 | 23 | –
8 | CCc1nn(C)c2c1CCC(Nc1nc3c(-c4ccc(F)cc4C)cccn3n1)C2 (stereo not drawn) [Example 54, (3-Ethyl-1-methyl-4,5,6,7-tetrahydro-1H-indazol-6-yl)-[8-(4-fluoro-2-methyl-phenyl)-[1,2,4]triazolo[1,5-a]pyridine-2-yl]-amine] | 15/15 | < 40 | 15 | –
9 | CCCCCn1ncc2c1CCC(Nc1nc3c(-c4ccc(F)cc4C)cccn3n1)C2 (stereo not drawn) [Example 47, [8-(4-fluoro-2-methyl-phenyl)-[1,2,4]triazolo[1,5-a]pyridine-2-yl]-(1-pentyl-4,5,6,7-tetrahydro-1H-indazol-5-yl)-amine] | 15/15 | < 40 | 21 | –
10 | CCn1ncc2c1C(C)CC(Nc1nc3c(-c4cc(F)c(F)c(F)c4)cccn3n1)C2 (stereo not drawn) [Example 49, (1-Ethyl-7-methyl-4,5,6,7-tetrahydro-1H-indazol-5-yl)-[8-(3,4,5-trifluoro-phenyl)-[1,2,4]triazolo[1,5-a]pyridine-2-yl]-amine] | 14/15 | < 40 | 25 | –
11 | Cc1cc(F)ccc1-c1cccn2nc(NC3CCc4cnn(C)c4C3)nc12 (stereo not drawn) [Example 40, [8-(4-Fluoro-2-methyl-phenyl)-[1,2,4]triazolo[1,5-a]pyridine-2-yl]-(1-methyl-4,5,6,7-tetrahydro-1H-indazol-6-yl)-amine] | 13/15 | < 40 | 20 | –
12 | CCn1ncc2c1CCC(Nc1nc3c(-c4ccc(F)cc4C)cccn3n1)C2 (stereo not drawn) [Example 42, (1-Ethyl-4,5,6,7-tetrahydro-1H-indazol-5-yl)-[8-(4-fluoro-2-methyl-phenyl)-[1,2,4]triazolo[1,5-a]pyridine-2-yl]-amine] | 15/15 | < 40 | 19 | –
13 | CCn1ncc2c1CCC(Nc1nc3c(-c4ccccc4)cccn3n1)C2 (stereo not drawn) [Example 57, (1-Ethyl-4,5,6,7-tetrahydro-1H-indazol-5-yl)-(8-phenyl-[1,2,4]triazolo[1,5-a]pyridine-2-yl)-amine] | 12/15 | < 40 | 20 | –
14 | CCn1ncc2c1CCC(Nc1nc3c(-c4ccc(F)cc4)cccn3n1)C2 (stereo not drawn) [Example 55, (1-Ethyl-4,5,6,7-tetrahydro-1H-indazol-5-yl)-[8-(4-fluoro-phenyl)-[1,2,4]triazolo[1,5-a]pyridine-2-yl]-amine] | 13/15 | < 40 | 27 | –
15 | CCn1ncc2c1CC[C@@H](Nc1nc3c(-c4ccc(F)cc4C)cccn3n1)C2 [Example R-42, (R)-(1-Ethyl-4,5,6,7-tetrahydro-1H-indazol-5-yl)-[8-(4-fluoro-2-methyl-phenyl)-[1,2,4]triazolo[1,5-a]pyridine-2-yl]-amine] | 14/15 | < 40 | 26 | –
16 | Cc1cc(F)ccc1-c1cccn2nc(NC3CCc4c(cnn4CC(C)C)C3)nc12 (stereo not drawn) [Example 45, [8-(4-fluoro-2-methyl-phenyl)-[1,2,4]triazolo[1,5-a]pyridine-2-yl]-(1-isobutyl-4,5,6,7-tetrahydro-1H-indazol-5-yl)-amine] | 14/15 | < 40 | 15 | –
17 | CCn1ncc2c1CCC(Nc1nc3c(-c4ccccc4C)cccn3n1)C2 (stereo not drawn) [Example 56, (1-Ethyl-4,5,6,7-tetrahydro-1H-indazol-5-yl)-[8-(2-methyl-phenyl)-[1,2,4]triazolo[1,5-a]pyridine-2-yl]-amine] | 12/15 | < 40 | 19 | –
18 | Cc1cc(F)ccc1-c1cccn2nc(Nc3ccc4c(cnn4C)c3)nc12 [Example 9, [8-(4-fluoro-2-methyl-phenyl)-[1,2,4]triazolo[1,5-a]pyridine-2-yl]-(1-methyl-1H-indazol-5-yl)-amine] | 7/15 | < 40 | 18 | –
19 | CCCn1ncc2c1CCC(Nc1nc3c(-c4ccc(F)cc4C)cccn3n1)C2 (stereo not drawn) [Example 43, [8-(4-fluoro-2-methyl-phenyl)-[1,2,4]triazolo[1,5-a]pyridine-2-yl]-(1-propyl-4,5,6,7-tetrahydro-1H-indazol-5-yl)-amine] | 14/15 | < 40 | 22 | –
